14 molecules from patent US10517867B2, “Posaconazole derivative, pharmaceutical composition and use thereof” (priority 2016, dated 2019) can be followed below.

The nature of data set [1]: Solid stability test (stability chamber, HPLC total impurity). It counts as physicochemical.
A short description of data set [2]: Determination of solubility in deionized water (HPLC, external standard). The conditions noted are these: for solubility at 30 min: 25 °C, water, thermodynamic from solid; for Solubility: 25±2° C., after 30 min.
Data set [3] in a line: In vitro metabolic stability in human plasma. It counts as in vitro ADME. The conditions noted are these: human, plasma, 37° C., 10 μM compound, read-out: Human plasma T1/2. The protocol: (§1) This example detects the metabolic stability of the compounds of the present disclosure in human (rat) plasma and intestinal S9 in vitro. In a human (rat) plasma reaction system, 990 μl of human (rat) plasma was taken and incubated at 37° C. for 5 minutes, and 10 μl of the compound mother liquor was used to initiate the reaction. In the human (rat) intestinal S9 stability experiment, in the order shown in Table 2 below, the samples were added and incubated in a 37° C. water bath to initiate the reaction, each sample performed in triplicates. Respectively, at 1 minute, 2 minutes, 5 minutes, 15 minutes, 30 minutes after the reaction began, 100 μL of each was taken and added to a centrifuge tube containing 400 μL of 0° C. precooled internal standard working solution. The reaction was terminated, vortexed and mixed for 1 minute, centrifuged at 10000×g for 10 minutes in a 4° C. precooled high-speed centrifuge, and the supernatant was detected with HPLC. The test results were used to calculate metabolic half-life using WinNonlin (version 6.2 Pharsight, Mountain View, Calif.) with a non-compartmental model.
(§2) Compound stock solution concentration: 1 mM
(§3) Reaction matrix: human (rat) plasma, intestinal S9 purchased from Research Institute for Liver Diseases (Shanghai) Co., Ltd.

A short description of data set [4]: In vitro metabolic stability in human intestine S9. It counts as in vitro ADME. The conditions noted are these: human, 37° C., 10 μM compound, 1 mg/mL S9, NADPH regeneration system, read-out: Human intestine S9 T1/2. Here is the method:
as §1, §2, §3

A short description of data set [5]: In vitro metabolic stability in rat plasma. It counts as in vitro ADME. The conditions noted are these: rat, plasma, 37° C., 10 μM compound, read-out: Rat plasma T1/2. Here is the method:
as §1, §2, §3

Data set [6] is described as follows: In vitro metabolic stability in rat intestine S9. It counts as in vitro ADME. The conditions noted are these: rat, 37° C., 10 μM compound, 1 mg/mL S9, NADPH regeneration system, read-out: Rat intestine S9 T1/2. Here is the method: as §1, §2, §3
For data set [7], the system named is Candida albicans ATCC10231. The data set is described as follows: Systemic fungal infection in mice, intragastric administration. To be noted: Candida albicans, ATCC10231, po, 20 mg/kg intragastric once daily for 5 days. It counts as in vivo, ICR mice. The protocol: ICR mice, weighing 18-22 g, male, provided by Hubei Experimental Animal Center.
Prior to the experiment, a small amount of Candida albicans was picked from an SDA medium kept at 4° C. with an inoculation loop and inoculated into 1 ml YPD culture medium, cultured at 30° C. with 200 rpm shaking and activated for 16 hours, so that the fungus was in the late stage of exponential growth. Counted with a hemocytometer and the fungal solution concentration was adjusted to 1×10^3 to 5×10^3 CFU/ml with RPMI1640 medium. Monoclonal Candida albicans on SDA plate was picked up, inoculated into 1 ml YPD (Yeast Extract Peptone Dextrose Medium, the same below) culture medium, cultured at 35° C., 200 rpm for 16 hours until late exponential growth phase. Candida albicans was inoculated into fresh medium for culturing for 6 hours at 1%, centrifuged at 1000×g for 5 minutes, washed with physiological saline three times until the supernatant was colorless, counted with a hemocytometer, and the cell concentration was adjusted to 5×10^6 cells/ml. A tail vein injection of 0.1 ml/10 g caused a systemic fungal infection in mice. […] A total of 7 days of observations were performed. All dead mice were burned with ethanol.

Where [8] appears, read: 24 h, day 1, read-out: survival rate of mice, day 1.
[9] abbreviates: 48 h, day 2, read-out: survival rate of mice, day 2.
The mark [10] stands for this setting: 72 h, day 3, read-out: survival rate of mice, day 3.
The mark [11] stands for this setting: 96 h, day 4, read-out: survival rate of mice, day 4.
[12] abbreviates: 120 h, day 5, read-out: survival rate of mice, day 5.
The mark [13] stands for this setting: 144 h, day 6, read-out: survival rate of mice, day 6.
[14] abbreviates: 168 h, day 7, read-out: survival rate of mice, day 7.
[15] abbreviates: solid, packaged, 25° C.±2° C., relative humidity 60%±2%.

Where two headings read alike, the source gives them in different places.

As for `CC[C@@H]([C@H](C)O)n1ncn(-c2ccc(N3CCN(c4ccc(OC[C@@H]5CO[C@@](Cn6c[n+](C(C)OC(=O)N(C)c7ncccc7COC(=O)[C@@H](N)CCCNC)cn6)(c6ccc(F)cc6F)C5)cc4)CC3)cc2)c1=O` (stereo partly shown) [ST0038], the “Total impurity increment in 30 days” value in data set [1] was 1.06%. Further, the solubility at 30 min in data set [2] is more than 50 mg/mL.

Take `CC[C@@H]([C@H](C)OC(=O)OC(C)OC(=O)CCCCCCCOS(=O)(=O)[O-])n1ncn(-c2ccc(N3CCN(c4ccc(OC[C@@H]5CO[C@@](Cn6cncn6)(c6ccc(F)cc6F)C5)cc4)CC3)cc2)c1=O.[Na+]` (stereo partly shown) [ST0082]: the half-life at 10 µM in data set [3] stood at 8.99 ± 2.52 min; in data set [4], 42.1 ± 13.7 min; in data set [5], 9.36 ± 1.56 min; in data set [6] (pH 7.4) it was 52.6 ± 8.69 min. In addition, the responders at 20 mg/kg in data set [7] (setting [8]) amounted to 90%; in data set [7] (setting [9]), 70%; in data set [7] (setting [10]) it was 70%; in data set [7] (setting [11]), 70%; in data set [7] (setting [12]), 70%; in data set [7] (setting [13]), 70%. Besides, the responders at 20 mg/kg in data set [7] (setting [14]) stood at 60%. Besides, the solubility at 30 min in data set [2] is more than 50 mg/mL.

As for `CC[C@@H](C(C)OC(=O)OC(C)OC(=O)CCCCCCCCCOP(=O)([O-])[O-])n1ncn(-c2ccc(N3CCN(c4ccc(OC[C@@H]5CO[C@@](Cn6cncn6)(c6ccc(F)cc6F)C5)cc4)CC3)cc2)c1=O.[Na+].[Na+]` (stereo partly shown) [ST0072], the half-life at 10 µM in data set [3] amounted to 18.3 ± 1.97 min; in data set [4] (intestinal S9), 46.8 ± 12.8 min; in data set [5], 25.6 ± 13 min; in data set [6] (intestinal S9, pH 7.4), 39.9 ± 10.8 min.

`CC[C@@H](C(C)OC(=O)OC(C)OC(=O)CCCCCOS(=O)(=O)[O-])n1ncn(-c2ccc(N3CCN(c4ccc(OC[C@@H]5CO[C@@](Cn6cncn6)(c6ccc(F)cc6F)C5)cc4)CC3)cc2)c1=O.[Na+]` (stereo partly shown) [ST0079]: the half-life at 10 µM was determined as 2.56 ± 0.42 min in data set [3], 28.7 ± 8.9 min in data set [4], 2.06 ± 0.77 min in data set [5] and 27.9 ± 11.2 min in data set [6] (pH 7.4). In addition, the responders at 20 mg/kg in data set [7] (setting [8]) came out at 90%; in data set [7] (setting [9]), 90%; in data set [7] (setting [10]) it was 90%; in data set [7] (setting [11]), 80%; in data set [7] (setting [12]), 80%; in data set [7] (setting [13]), 70%. The responders at 20 mg/kg in data set [7] (setting [14]) was 70%. Moreover, in data set [2], the solubility at 30 min is more than 50 mg/mL.

As to `CC[C@@H](C(C)OC(=O)OC(C)OC(=O)CNS(=O)(=O)[O-])n1ncn(-c2ccc(N3CCN(c4ccc(OC[C@@H]5CO[C@@](Cn6cncn6)(c6ccc(F)cc6F)C5)cc4)CC3)cc2)c1=O.[Na+]` (stereo partly shown) [ST0057], the “Total impurity increment in 30 days” value in data set [1] (setting [15]) came to 1.96%. For the same molecule, in data set [2], the solubility at 30 min is more than 50 mg/mL.

Turning to `CC[C@@H]([C@H](C)O)n1ncn(-c2ccc(N3CCN(c4ccc(OC[C@@H]5CO[C@@](Cn6c[n+](C(C)OC(=O)N(C)c7ncccc7COC(=O)[C@@H](N)CCNC)cn6)(c6ccc(F)cc6F)C5)cc4)CC3)cc2)c1=O` (stereo partly shown) [ST0040], in data set [1] (setting [15]), the “Total impurity increment in 30 days” value was found to be 1.34%. In data set [2], this molecule came in with a solubility at 30 min of more than 50 mg/mL.

On to `CC[C@@H]([C@H](C)OC(=O)OC(C)OC(=O)Cc1ccc(OS(=O)(=O)[O-])cc1)n1ncn(-c2ccc(N3CCN(c4ccc(OC[C@@H]5CO[C@@](Cn6cncn6)(c6ccc(F)cc6F)C5)cc4)CC3)cc2)c1=O.[Na+]` (stereo partly shown) [ST0080], for which the half-life at 10 µM in data set [3] stood at 12.8 ± 3.57 min; in data set [4], 40.3 ± 12.7 min; in data set [5], 13.3 ± 4.78 min; in data set [6] (pH 7.4), 45.4 ± 11.3 min. Also, the responders at 20 mg/kg was determined as 90% in data set [7] (setting [8]); 90% in data set [7] (setting [9]); 90% in data set [7] (setting [10]); 80% in data set [7] (setting [11]); 70% in data set [7] (setting [12]); 70% in data set [7] (setting [13]). Also, the responders at 20 mg/kg in data set [7] (setting [14]) was found to be 60%.

In the case of `CC[C@@H]([C@H](C)OC(=O)OCCOCCOP(=O)([O-])[O-])n1ncn(-c2ccc(N3CCN(c4ccc(OC[C@@H]5CO[C@@](Cn6cncn6)(c6ccc(F)cc6F)C5)cc4)CC3)cc2)c1=O.[Na+].[Na+]` [ST0060], the “Total impurity increment in 30 days” value in data set [1] (setting [15]) is 0.83%. In data set [2], this molecule displayed a Solubility of more than 50 mg/mL.

For the molecule `CC[C@@H]([C@H](C)O)n1ncn(-c2ccc(N3CCN(c4ccc(OC[C@@H]5CO[C@@](Cn6c[n+](C(C)OC(=O)OCCOP(=O)(O)O)cn6)(c6ccc(F)cc6F)C5)cc4)CC3)cc2)c1=O` (stereo partly shown) [ST0042], the “Total impurity increment in 30 days” value in data set [1] (setting [15]) is given as 1.05%. In data set [2], this molecule came in with a solubility at 30 min of more than 50 mg/mL.

Turning to `CC[C@@H]([C@H](C)O)n1ncn(-c2ccc(N3CCN(c4ccc(OC[C@@H]5CO[C@@](Cn6c[n+](C(C)OC(=O)NC7O[C@H](CO)[C@H](O)[C@H]7OC(=O)CNC)cn6)(c6ccc(F)cc6F)C5)cc4)CC3)cc2)c1=O` (stereo partly shown) [ST0028], the “Total impurity increment in 30 days” value in data set [1] is 1.62%. The same molecule gave a solubility at 30 min in data set [2] of 35.7 mg/mL.

On to `CC[C@@H]([C@H](C)O)n1ncn(-c2ccc(N3CCN(c4ccc(OC[C@@H]5CO[C@@](Cn6c[n+](C(C)OC(=O)N(C)c7ncccc7COC(=O)[C@@H](N)CCCCN)cn6)(c6ccc(F)cc6F)C5)cc4)CC3)cc2)c1=O` (stereo partly shown) [ST0104], for which the “Total impurity increment in 30 days” value in data set [1] (setting [15]) was 0.27%.

For `CC[C@@H]([C@H](C)OC(=O)OC(C)OC(=O)CNP(=O)([O-])[O-])n1ncn(-c2ccc(N3CCN(c4ccc(OC[C@@H]5CO[C@@](Cn6cncn6)(c6ccc(F)cc6F)C5)cc4)CC3)cc2)c1=O.[Na+].[Na+]` (stereo partly shown) [ST0055], the “Total impurity increment in 30 days” value in data set [1] (setting [15]) is reported as 0.85%. In data set [2], this molecule had a Solubility of 35.4 mg/mL.

In the case of `CC[C@@H]([C@H](C)O)n1ncn(-c2ccc(N3CCN(c4ccc(OC[C@@H]5CO[C@@](Cn6c[n+](C(C)OC(=O)OCC[C@@H](N)C(=O)O)cn6)(c6ccc(F)cc6F)C5)cc4)CC3)cc2)c1=O.Cl.[Cl-]` (stereo partly shown) [ST0018], the half-life at 10 µM in data set [3] worked out at 18.6 ± 5.63 min; in data set [4] (intestinal S9) it was 50.1 ± 5.98 min; in data set [5], 11.5 ± 1.23 min; in data set [6] (intestinal S9, pH 7.4), 45.2 ± 6.95 min.

For `CC[C@@H](C(C)OC(=O)OC(C)OC(=O)CCCCOS(=O)(=O)[O-])n1ncn(-c2ccc(N3CCN(c4ccc(OC[C@@H]5CO[C@@](Cn6cncn6)(c6ccc(F)cc6F)C5)cc4)CC3)cc2)c1=O.[Na+]` (stereo partly shown) [ST0078], the half-life at 10 µM in data set [3] came out at 2.22 ± 0.58 min; in data set [4] it was 24.2 ± 8.75 min; in data set [5], 2.57 ± 0.74 min; in data set [6] (pH 7.4), 28.2 ± 5.65 min. In addition, the responders at 20 mg/kg is 90% in data set [7] (setting [8]); 90% in data set [7] (setting [9]); 80% in data set [7] (setting [10]); 70% in data set [7] (setting [11]); 70% in data set [7] (setting [12]); 70% in data set [7] (setting [13]). In addition, the responders at 20 mg/kg in data set [7] (setting [14]) turned out to be 70%. The molecule also showed a solubility at 30 min in data set [2] of more than 50 mg/mL.
